{"source": "patent US10780047B2", "about": "“Method of providing birth control” (The Population Council, Inc., priority 2019, dated 2020)", "key": {"serum albumin": {"molecular_target": "serum albumin (Homo sapiens, UniProt P02768)", "sequence (P02768 25-609)": "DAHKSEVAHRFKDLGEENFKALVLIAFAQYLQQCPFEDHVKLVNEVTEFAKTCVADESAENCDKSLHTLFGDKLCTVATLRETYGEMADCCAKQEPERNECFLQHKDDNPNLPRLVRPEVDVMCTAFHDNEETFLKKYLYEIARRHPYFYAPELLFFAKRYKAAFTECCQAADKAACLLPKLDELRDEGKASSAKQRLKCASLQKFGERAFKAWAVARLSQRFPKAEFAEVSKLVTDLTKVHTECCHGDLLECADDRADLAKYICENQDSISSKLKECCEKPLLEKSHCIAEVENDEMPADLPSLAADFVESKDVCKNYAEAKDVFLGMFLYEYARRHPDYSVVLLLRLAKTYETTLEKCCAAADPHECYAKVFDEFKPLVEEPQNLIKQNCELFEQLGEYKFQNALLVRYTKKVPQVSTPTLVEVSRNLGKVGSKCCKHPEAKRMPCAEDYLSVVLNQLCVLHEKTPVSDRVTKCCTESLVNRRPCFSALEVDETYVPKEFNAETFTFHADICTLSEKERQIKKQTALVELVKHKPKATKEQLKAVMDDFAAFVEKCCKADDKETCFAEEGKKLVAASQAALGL", "assay": "Serum albumin binding", "format": "in vitro ADME", "conditions": "not specifically bound"}, "[1]": {"assay": "Drug-drug interaction study with vaginal miconazole formulations", "format": "in vivo, human", "conditions": "for overall increase in exposure: concurrent 1 day or 3-day oil-based miconazole suppository; for change in exposure from the vaginal system: concurrent water-based vaginal miconazole cream", "from_the_text": "However, the use of either the 1 day or the 3-day oil-based miconazole suppository was associated with an overall increase in exposure up to 67% for EE and 32% for SA. Considering the potential long-term effect on vaginal system performance, concurrent use of oil-based vaginal suppositories should not occur with the system's use. If there is a need to treat a vaginal condition, water-based vaginal cream or oral therapy may be used concurrently with the vaginal system."}, "[2]": {"assay": "Residual amount of drug in vaginal systems used in clinical trials over 13 product-use cycles", "format": "in vivo, human", "conditions": "based on residual drug in used systems", "procedure": "Although the vaginal system provides SA and EE in the approximate rates described above, SA and EE can diffuse out of the vaginal system with release rates that vary over time. In certain embodiments, the daily in vitro release rates of SA and EE are higher during each initial 24-48 hours of use in a given product-use cycle, achieving a somewhat lower steady-state with continued use over subsequent days in each product-use cycle. Based on the residual amount of drug in vaginal systems used in clinical trials over 13 product-use cycles, a total of approximately 41.3 mg of SA and approximately 3.4 mg of EE are released over this period."}, "Solubility": {"assay": "Solubility", "conditions": "descriptive term"}, "[3]": {"assay": "Pharmacokinetics of the vaginal system in 39 women over up to 13 product-use cycles", "format": "in vivo, human", "set-up": "AUC(0-t) / AUC0-21day / AUC0-1day: concentration or dose not given beside the values", "conditions": "vaginal administration; for AUC0-1day / AUC0-21day / Cavg / Cmax / AUC(0-t): mean (SD)", "procedure": "The pharmacokinetics (PK) of the vaginal system described herein were determined in 39 women who used the system for up to 13 product-use cycles. […] Over subsequent product-use cycles, the peak serum concentrations of SA and EE declined. Serum concentration-time profiles of SA and EE for product-pse cycles 1, 3, and 13 of system use are provided in FIG. 1 and FIG. 2 with PK parameters summarized in Table 3 and Table 4."}, "[4]": {"conditions": "in vivo"}, "[5]": {"conditions": "co-administration of atorvastatin or rosuvastatin and certain CHCs containing EE; cited from earlier work"}, "[6]": {"molecular_target": "cytochrome P450 (CYP) 3A4 isoenzyme (Homo sapiens, UniProt P08684)", "sequence (P08684 whole entry)": "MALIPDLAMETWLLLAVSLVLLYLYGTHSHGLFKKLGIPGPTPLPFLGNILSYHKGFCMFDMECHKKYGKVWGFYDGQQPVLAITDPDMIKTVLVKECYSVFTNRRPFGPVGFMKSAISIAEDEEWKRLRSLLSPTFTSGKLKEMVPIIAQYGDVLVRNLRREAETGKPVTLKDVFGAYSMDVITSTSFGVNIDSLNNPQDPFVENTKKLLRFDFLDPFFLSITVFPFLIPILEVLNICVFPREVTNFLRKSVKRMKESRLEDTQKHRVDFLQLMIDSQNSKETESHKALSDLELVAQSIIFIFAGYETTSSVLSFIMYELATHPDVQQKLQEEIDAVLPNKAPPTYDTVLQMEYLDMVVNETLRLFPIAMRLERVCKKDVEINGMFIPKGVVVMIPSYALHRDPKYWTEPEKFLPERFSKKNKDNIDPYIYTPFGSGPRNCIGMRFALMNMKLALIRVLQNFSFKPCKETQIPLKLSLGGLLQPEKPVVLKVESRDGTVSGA"}, "Salmonella": {"system": "Salmonella", "assay": "Ames/Salmonella reverse mutation assay", "format": "cell-based"}, "[7]": {"system": "Chinese hamster ovary cells", "assay": "Chromosomal aberration assay", "format": "cell-based"}, "mouse": {"system": "mouse", "assay": "In vivo mouse micronucleus test"}, "QTc interval": {"system": "QTc interval", "assay": "Phase 1 thorough QTc study", "format": "in vivo, human", "conditions": "single intravenous bolus dose giving 4.5-fold the therapeutic serum concentrations; 44 healthy adult female subjects", "procedure": "The effect of SA on the QTc interval was evaluated in a Phase 1 randomized, placebo and positive controlled, double-blind, single-dose, three-period, crossover thorough QTc study in 44 healthy adult female subjects."}, "rats [8]": {"system": "rats", "assay": "2-year carcinogenicity study in rats with subdermal implants", "format": "in vivo, rat", "conditions": "subdermal implants releasing 40, 100, and 200 μg per day, 2 years", "from_the_text": "(§1) Long-term continuous administration of natural and synthetic estrogens in certain animal species increases the frequency of carcinomas of the breast, uterus, cervix, vagina, testis, and liver."}, "[9]": {"molecular_target": "T1, sex hormone-binding globulin (SHBG) (Homo sapiens, UniProt P04278)", "T1 sequence (P04278 30-402)": "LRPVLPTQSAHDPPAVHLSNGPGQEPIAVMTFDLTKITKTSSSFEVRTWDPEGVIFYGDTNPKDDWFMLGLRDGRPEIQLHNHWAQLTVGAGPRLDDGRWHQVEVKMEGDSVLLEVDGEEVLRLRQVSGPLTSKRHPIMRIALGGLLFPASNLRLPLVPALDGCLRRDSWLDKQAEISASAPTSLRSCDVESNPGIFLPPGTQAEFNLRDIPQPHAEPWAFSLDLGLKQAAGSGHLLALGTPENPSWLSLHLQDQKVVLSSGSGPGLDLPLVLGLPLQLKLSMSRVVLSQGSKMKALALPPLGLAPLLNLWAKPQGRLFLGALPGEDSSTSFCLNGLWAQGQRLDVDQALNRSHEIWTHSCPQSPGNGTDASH", "assay": "Binding affinity for SHBG"}, "mice": {"system": "mice", "assay": "2-year intravaginal carcinogenicity study in mice", "format": "in vivo, mouse", "conditions": "intravaginal gel, 2 years", "from_the_text": "as §1"}, "clinical": {"assay": "clinical", "conditions": "human, in vivo"}, "CYP enzymes": {"system": "CYP enzymes", "assay": "In vitro CYP inhibition/induction studies", "format": "in vitro ADME", "conditions": "at the therapeutic dose"}, "human serum proteins": {"system": "human serum proteins", "assay": "Serum protein binding", "format": "in vitro ADME"}, "physchem": {"assay": "physchem", "conditions": "water"}, "rats [10]": {"system": "rats", "assay": "Return to fertility study in rats with subdermal implants", "format": "in vivo, rat", "procedure": "A return to fertility study was conducted with segesterone acetate in rats, using subdermal implants releasing a dose approximately 25 times the anticipated daily vaginal human dose (based on body surface area)."}}, "note": "Where two headings read alike, the source gives them in different places.", "data": [{"smiles": "C#C[C@]1(O)CC[C@H]2[C@@H]3CCc4cc(O)ccc4[C@H]3CC[C@@]21C", "note": "[EE, 19-nor-17α-pregna-1,3,5(10)-trien-20-yne-3,17-diol]", "values": [{"measurement": "bound to serum albumin", "setting": "serum albumin", "result": 98.5, "unit": "%"}, {"measurement": "overall increase in exposure", "setting": "[1]", "result": "up to 67%"}, {"measurement": "change in exposure from the vaginal system", "setting": "[1]", "result": "no change"}, {"measurement": "total amount released", "setting": "[2]", "result": "approximately 3.4 mg"}, {"measurement": "solubility in alkaline solution", "setting": "Solubility", "result": "dissolves"}, {"measurement": "AUC0-1day", "setting": "[3]; Cycle 1, serum", "result": "2.1 (0.7) ng * hr/mL"}, {"measurement": "AUC0-21day", "setting": "[3]; Cycle 1, serum", "result": "22.2 (9.8) ng * hr/mL"}, {"measurement": "Cavg", "setting": "[3]; Cycle 1, serum", "result": "44 (19) pg/mL"}, {"measurement": "Cmax", "setting": "[3]; Cycle 1, serum", "result": "129 (39) pg/mL"}, {"measurement": "AUC0-1day", "setting": "[3]; Cycle 3, serum", "result": "0.9 (0.4) ng * hr/mL"}, {"measurement": "AUC0-21day", "setting": "[3]; Cycle 3, serum", "result": "14.7 (4.7) ng * hr/mL"}, {"measurement": "Cavg", "setting": "[3]; Cycle 3, serum", "result": "29 (9) pg/mL"}, {"measurement": "Cmax", "setting": "[3]; Cycle 3, serum", "result": "60 (32) pg/mL"}, {"measurement": "AUC0-1day", "setting": "[3]; Cycle 13, serum", "result": "0.7 (0.3) ng * hr/mL"}, {"measurement": "AUC0-21day", "setting": "[3]; Cycle 13, serum", "result": "9.6 (4.1) ng * hr/mL"}, {"measurement": "Cavg", "setting": "[3]; Cycle 13, serum", "result": "19 (8) pg/mL"}, {"measurement": "Cmax", "setting": "[3]; Cycle 13, serum", "result": "39 (16) pg/mL"}, {"measurement": "median Tmax", "setting": "[3]; product-use cycle 1, 3 and 13", "result": "about 2 hours"}, {"measurement": "half-life", "setting": "[4]; human", "result": "15.1 (7.5) hours"}, {"measurement": "effect on serum concentrations of SHBG", "setting": "[4]", "result": "induces an increase"}, {"measurement": "increase in systemic exposure of EE", "setting": "[5]", "result": "20-25%"}, {"measurement": "metabolizing enzyme", "setting": "[6]", "result": "metabolized by the cytochrome P450 (CYP) 3A4 isoenzyme"}]}, {"smiles": "C=C1C[C@H]2[C@@H]3CCC4=CC(=O)CC[C@@H]4[C@H]3CC[C@]2(C)[C@@]1(OC(C)=O)C(C)=O", "note": "[SA, 16-methylene-17α-acetoxy-19-nor-pregn-4-ene-3,20-dione]", "values": [{"measurement": "mutagenicity", "setting": "Salmonella", "result": "neither mutagenic nor elastogenic"}, {"measurement": "chromosomal aberration", "setting": "[7]", "result": "neither mutagenic nor elastogenic"}, {"measurement": "overall increase in exposure", "setting": "[1]", "result": "≤ 32", "unit": "%"}, {"measurement": "change in exposure from the vaginal system", "setting": "[1]", "result": "no change"}, {"measurement": "micronucleus test result", "setting": "mouse", "result": "neither mutagenic nor elastogenic"}, {"measurement": "effect on the QTc interval", "setting": "QTc interval", "result": "did not prolong the QTc interval to any clinically relevant extent"}, {"measurement": "total amount released", "setting": "[2]", "result": "approximately 41.3 mg"}, {"measurement": "tumor incidence", "setting": "rats [8]", "result": "no drug-related increase in tumor incidence"}, {"measurement": "binding affinity for sex hormone-binding globulin (SHBG)", "setting": "[9]", "result": "negligible"}, {"measurement": "carcinogenic findings", "setting": "mice; 10 mg/kg/day", "result": "did not result in carcinogenic findings"}, {"measurement": "carcinogenic findings", "setting": "mice; 30 mg/kg/day", "result": "increased incidence of adenocarcinoma and lobular hyperplasia in the breast"}, {"measurement": "Vd", "setting": "clinical", "result": 19.6, "unit": "L/kg"}, {"measurement": "half-life", "setting": "clinical", "result": 4.5, "unit": "h"}, {"measurement": "Cavg", "setting": "[3]; Cycle 1, serum", "result": "191 (34) pg/mL"}, {"measurement": "Cavg", "setting": "[3]; Cycle 3, serum", "result": "131 (29) pg/mL"}, {"measurement": "Cavg", "setting": "[3]; Cycle 13, serum", "result": "94 (20) pg/mL"}, {"measurement": "AUC(0-t)", "setting": "[3]; female, human, serum, Cycle 1, serum, read-out: AUC0-1day", "result": 15, "unit": "ng·h/mL"}, {"measurement": "AUC(0-t)", "setting": "[3]; female, human, serum, Cycle 1, serum, read-out: AUC0-21day", "result": 96.2, "unit": "ng·h/mL"}, {"measurement": "Cmax", "setting": "[3]; female, human, serum, Cycle 1, serum, read-out: Cmax", "result": 1.15, "unit": "ng/mL"}, {"measurement": "AUC(0-t)", "setting": "[3]; female, human, serum, Cycle 3, serum, read-out: AUC0-1day", "result": 5, "unit": "ng·h/mL"}, {"measurement": "AUC(0-t)", "setting": "[3]; female, human, serum, Cycle 3, serum, read-out: AUC0-21day", "result": 65.9, "unit": "ng·h/mL"}, {"measurement": "Cmax", "setting": "[3]; female, human, serum, Cycle 3, serum, read-out: Cmax", "result": 0.363, "unit": "ng/mL"}, {"measurement": "AUC(0-t)", "setting": "[3]; female, human, serum, Cycle 13, serum, read-out: AUC0-1day", "result": 3.9, "unit": "ng·h/mL"}, {"measurement": "AUC(0-t)", "setting": "[3]; female, human, serum, Cycle 13, serum, read-out: AUC0-21day", "result": 47.2, "unit": "ng·h/mL"}, {"measurement": "Cmax", "setting": "[3]; female, human, serum, Cycle 13, serum, read-out: Cmax", "result": 0.294, "unit": "ng/mL"}, {"measurement": "Tmax", "setting": "[3]; female, human, serum, product-use cycle 1, 3 and 13, read-out: median Tmax", "result": "~2", "unit": "h"}, {"measurement": "inhibition or induction of CYP enzymes", "setting": "CYP enzymes", "result": "unlikely to inhibit or induce CYP enzymes"}, {"measurement": "bound to human serum proteins", "setting": "human serum proteins", "result": "approximately 95%"}, {"measurement": "metabolizing enzyme", "setting": "[6]; human", "result": "metabolized by the cytochrome P450 (CYP) 3A4 isoenzyme"}, {"measurement": "solubility", "setting": "physchem", "result": 18.5, "unit": "µg/mL"}, {"measurement": "effects on ovulation or litter parameters after treatment", "setting": "rats [10]; 7 weeks after cessation of treatment", "result": "no adverse effects on ovulation or resulting litter parameters"}, {"measurement": "effect on fertility", "setting": "rats [10]; subdermal implants, three months of treatment, approximately 25 times the human dose", "result": "suppressed fertility"}]}]}
